Source: US20210079443A1, “INDICATOR BAC[…] SELECTING AND […] EFFICACY OF THERAPEUTICS AND METHODS FOR USING SAME” (priority 2018, published 2021)

Legend:
Test in all cases: Phage-Mediated Detection of Staphylococcus aureus
Assay type in all cases: cell-based
[1] = tested on: Staphylococcus aureus strain AR0489 (MSSA, CDC Panel)
Experimental: (§1) Samples of methicillin-resistant S. aureus (MRSA) were primed by adding 135 μl of samples containing S. aureus to rich media. The rich media included sub-inhibitory antibiotic (cefoxitin) to allow for specific enrichment and induction of MRSA. Samples were incubated in rich media for 1-2 hours. Following the priming of the samples, additional cefoxitin was added to the media and samples were incubated for an additional 2 hours. Staphylococcus aureus-specific bacteriophage NanoLuc Indicator phage was added to the samples and incubated for 2 hours. Lysis buffer and NANO-GLO® reagent were added. Following 5 minutes of incubation, measurements of bioluminescence were taken using a GLOMAX® 96 instrument. A signal/background ratio ≥750 RLU indicated positive detection of S. aureus. A signal/background ratio of <750 RLU indicated the sample was negative for S. aureus.

[2] = tested on: Staphylococcus aureus strain AR0473 (MRSA, CDC Panel)
Experimental: as §1

[3] = tested on: Staphylococcus aureus strain AR0485 (MSSA, CDC Panel)
Experimental: as §1

[4] = tested on: Staphylococcus aureus strain AR0491 (MSSA, CDC Panel)
Experimental: as §1

[5] = tested on: Staphylococcus aureus strain AR0476 (MRSA, CDC Panel)
Experimental: as §1

[6] = tested on: Staphylococcus aureus strain AR0461 (MRSA, CDC Panel)
Experimental: as §1

[7] = tested on: Staphylococcus aureus strain AR0468 (MRSA, CDC Panel)
Experimental: as §1

[8] = tested on: Staphylococcus aureus strain AR0480 (MRSA, CDC Panel)
Experimental: as §1

[9] = tested on: Staphylococcus aureus strain BAA-2094 (MRSA, ATCC)
Experimental: as §1

[10] = tested on: Staphylococcus aureus strain AR0477 (MRSA, CDC Panel)
Experimental: as §1

[11] = tested on: Staphylococcus aureus strain AR0470 (MRSA, CDC Panel)
Experimental: as §1

[12] = tested on: Staphylococcus aureus strain AR0474 (MRSA, CDC Panel)
Experimental: as §1

[13] = tested on: Staphylococcus aureus strain BAA-2313 (MRSA, ATCC)
Experimental: as §1

[14] = tested on: Staphylococcus aureus strain AR0467 (MRSA, CDC Panel)
Experimental: as §1

[15] = tested on: Staphylococcus aureus strain AR0483 (MRSA, CDC Panel)
Experimental: as §1

[16] = tested on: Staphylococcus aureus strain AR0469 (MRSA, CDC Panel)
Experimental: as §1

[17] = tested on: Staphylococcus aureus strain AR0465 (MRSA, CDC Panel)
Experimental: as §1

[18] = tested on: Staphylococcus aureus strain AR0482 (MRSA, CDC Panel)
Experimental: as §1

[19] = tested on: Staphylococcus aureus strain AR0472 (MRSA, CDC Panel)
Experimental: as §1

[20] = tested on: Staphylococcus aureus strain AR0486 (MSSA, CDC Panel)
Experimental: as §1

[21] = tested on: Staphylococcus aureus strain BAA-42 (MRSA, ATCC)
Experimental: as §1

Q: With CO[C@@]1(NC(=O)Cc2cccs2)C(=O)N2C(C(=O)O)=C(COC(N)=O)CS[C@@H]21 [Cefoxitin, cefoxitin] as the molecule, how does the “Cefoxitin Concentration 1 ug/mL (indicator phage luminescence signal)” value (“Cefoxitin Concentration 1 ug/mL” below) ([1]; detected CFU 144, cefoxitin 1 ug/mL) read?
A: Its value is 30590 RLU.

Q: And the “Cefoxitin Concentration 2 ug/mL (indicator phage luminescence signal)” value (“Cefoxitin Concentration 2 ug/mL” for short) ([1]; detected CFU 144, cefoxitin 2 ug/mL)?
A: The value was 188 RLU.

Q: And the “Cefoxitin Concentration 4 ug/mL (indicator phage luminescence signal)” value (“Cefoxitin Concentration 4 ug/mL” for short) ([1]; detected CFU 144, cefoxitin 4 ug/mL)?
A: The value was 207 RLU.

Q: What about the “Cefoxitin Concentration 1 ug/mL” value ([2]; detected CFU 219, cefoxitin 1 ug/mL) of the same molecule?
A: The value was 60000 RLU.

Q: What about the “Cefoxitin Concentration 2 ug/mL” value ([2]; detected CFU 219, cefoxitin 2 ug/mL) of the same molecule?
A: Its value is 17500 RLU.

Q: And the “Cefoxitin Concentration 4 ug/mL” value ([2]; detected CFU 219, cefoxitin 4 ug/mL)?
A: Its value is 338 RLU.

Q: What about the “Cefoxitin Concentration 1 ug/mL” value ([3]; detected CFU 190, cefoxitin 1 ug/mL) of the same molecule?
A: Its value is 13930 RLU.

Q: What about the “Cefoxitin Concentration 2 ug/mL” value ([3]; detected CFU 190, cefoxitin 2 ug/mL) of the same molecule?
A: Its value is 236 RLU.

Q: What about the “Cefoxitin Concentration 4 ug/mL” value ([3]; detected CFU 190, cefoxitin 4 ug/mL) of the same molecule?
A: Its value is 301 RLU.

Q: What about the “Cefoxitin Concentration 1 ug/mL” value ([4]; detected CFU 217, cefoxitin 1 ug/mL) of the same molecule?
A: Its value is 40760 RLU.

Q: And the “Cefoxitin Concentration 2 ug/mL” value ([4]; detected CFU 217, cefoxitin 2 ug/mL)?
A: Its value is 215 RLU.

Q: And the “Cefoxitin Concentration 4 ug/mL” value ([4]; detected CFU 217, cefoxitin 4 ug/mL)?
A: The value was 266 RLU.

Q: And the “Cefoxitin Concentration 1 ug/mL” value ([5]; detected CFU 95, cefoxitin 1 ug/mL)?
A: Its value is 245000 RLU.

Q: What about the “Cefoxitin Concentration 2 ug/mL” value ([5]; detected CFU 95, cefoxitin 2 ug/mL) of the same molecule?
A: The value was 52910 RLU.

Q: And the “Cefoxitin Concentration 4 ug/mL” value ([5]; detected CFU 95, cefoxitin 4 ug/mL)?
A: Its value is 21 RLU.

Q: What about the “Cefoxitin Concentration 1 ug/mL” value ([6]; detected CFU 25, cefoxitin 1 ug/mL) of the same molecule?
A: The value was 3460 RLU.

Q: What about the “Cefoxitin Concentration 2 ug/mL” value ([6]; detected CFU 25, cefoxitin 2 ug/mL) of the same molecule?
A: The value was 1846 RLU.

Q: What about the “Cefoxitin Concentration 4 ug/mL” value ([6]; detected CFU 25, cefoxitin 4 ug/mL) of the same molecule?
A: Its value is 910 RLU.

Q: What about the “Cefoxitin Concentration 1 ug/mL” value ([7]; detected CFU 169, cefoxitin 1 ug/mL) of the same molecule?
A: The value was 10330 RLU.

Q: And the “Cefoxitin Concentration 2 ug/mL” value ([7]; detected CFU 169, cefoxitin 2 ug/mL)?
A: The value was 10070 RLU.

Q: And the “Cefoxitin Concentration 4 ug/mL” value ([7]; detected CFU 169, cefoxitin 4 ug/mL)?
A: Its value is 5002 RLU.

Q: What about the “Cefoxitin Concentration 1 ug/mL” value ([8]; detected CFU 356, cefoxitin 1 ug/mL) of the same molecule?
A: The value was 1038000 RLU.

Q: And the “Cefoxitin Concentration 2 ug/mL” value ([8]; detected CFU 356, cefoxitin 2 ug/mL)?
A: Its value is 430200 RLU.

Q: What about the “Cefoxitin Concentration 4 ug/mL” value ([8]; detected CFU 356, cefoxitin 4 ug/mL) of the same molecule?
A: The value was 127400 RLU.

Q: What about the “Cefoxitin Concentration 1 ug/mL” value ([9]; detected CFU 147, cefoxitin 1 ug/mL) of the same molecule?
A: The value was 252900 RLU.

Q: What about the “Cefoxitin Concentration 2 ug/mL” value ([9]; detected CFU 147, cefoxitin 2 ug/mL) of the same molecule?
A: The value was 96700 RLU.

Q: What about the “Cefoxitin Concentration 4 ug/mL” value ([9]; detected CFU 147, cefoxitin 4 ug/mL) of the same molecule?
A: The value was 1971 RLU.

Q: And the “Cefoxitin Concentration 1 ug/mL” value ([10]; detected CFU 471, cefoxitin 1 ug/mL)?
A: Its value is 478000 RLU.

Q: And the “Cefoxitin Concentration 2 ug/mL” value ([10]; detected CFU 471, cefoxitin 2 ug/mL)?
A: Its value is 95970 RLU.

Q: And the “Cefoxitin Concentration 4 ug/mL” value ([10]; detected CFU 471, cefoxitin 4 ug/mL)?
A: Its value is 4068 RLU.

Q: And the “Cefoxitin Concentration 1 ug/mL” value ([11]; detected CFU 215, cefoxitin 1 ug/mL)?
A: Its value is 3502 RLU.

Q: And the “Cefoxitin Concentration 2 ug/mL” value ([11]; detected CFU 215, cefoxitin 2 ug/mL)?
A: Its value is 1846 RLU.

Q: And the “Cefoxitin Concentration 4 ug/mL” value ([11]; detected CFU 215, cefoxitin 4 ug/mL)?
A: Its value is 179 RLU.

Q: And the “Cefoxitin Concentration 1 ug/mL” value ([12]; detected CFU 477, cefoxitin 1 ug/mL)?
A: Its value is 3449 RLU.

Q: And the “Cefoxitin Concentration 2 ug/mL” value ([12]; detected CFU 477, cefoxitin 2 ug/mL)?
A: Its value is 2235 RLU.

Q: What about the “Cefoxitin Concentration 4 ug/mL” value ([12]; detected CFU 477, cefoxitin 4 ug/mL) of the same molecule?
A: The value was 1684 RLU.

Q: What about the “Cefoxitin Concentration 1 ug/mL” value ([13]; detected CFU 192, cefoxitin 1 ug/mL) of the same molecule?
A: Its value is 363300 RLU.

Q: What about the “Cefoxitin Concentration 2 ug/mL” value ([13]; detected CFU 192, cefoxitin 2 ug/mL) of the same molecule?
A: Its value is 52440 RLU.

Q: What about the “Cefoxitin Concentration 4 ug/mL” value ([13]; detected CFU 192, cefoxitin 4 ug/mL) of the same molecule?
A: Its value is 2409 RLU.

Q: And the “Cefoxitin Concentration 1 ug/mL” value ([14]; detected CFU 171, cefoxitin 1 ug/mL)?
A: The value was 9908 RLU.

Q: What about the “Cefoxitin Concentration 2 ug/mL” value ([14]; detected CFU 171, cefoxitin 2 ug/mL) of the same molecule?
A: The value was 6497 RLU.

Q: What about the “Cefoxitin Concentration 4 ug/mL” value ([14]; detected CFU 171, cefoxitin 4 ug/mL) of the same molecule?
A: The value was 4401 RLU.

Q: And the “Cefoxitin Concentration 1 ug/mL” value ([15]; detected CFU 12, cefoxitin 1 ug/mL)?
A: The value was 39250 RLU.

Q: And the “Cefoxitin Concentration 2 ug/mL” value ([15]; detected CFU 12, cefoxitin 2 ug/mL)?
A: The value was 24390 RLU.

Q: What about the “Cefoxitin Concentration 4 ug/mL” value ([15]; detected CFU 12, cefoxitin 4 ug/mL) of the same molecule?
A: Its value is 9081 RLU.

Q: What about the “Cefoxitin Concentration 1 ug/mL” value ([16]; detected CFU 523, cefoxitin 1 ug/mL) of the same molecule?
A: Its value is 35110 RLU.

Q: And the “Cefoxitin Concentration 2 ug/mL” value ([16]; detected CFU 523, cefoxitin 2 ug/mL)?
A: The value was 22030 RLU.

Q: And the “Cefoxitin Concentration 4 ug/mL” value ([16]; detected CFU 523, cefoxitin 4 ug/mL)?
A: The value was 9007 RLU.

Q: What about the “Cefoxitin Concentration 1 ug/mL” value ([17]; detected CFU 101, cefoxitin 1 ug/mL) of the same molecule?
A: The value was 8263 RLU.

Q: What about the “Cefoxitin Concentration 2 ug/mL” value ([17]; detected CFU 101, cefoxitin 2 ug/mL) of the same molecule?
A: Its value is 4086 RLU.

Q: And the “Cefoxitin Concentration 4 ug/mL” value ([17]; detected CFU 101, cefoxitin 4 ug/mL)?
A: The value was 3006 RLU.

Q: And the “Cefoxitin Concentration 1 ug/mL” value ([18]; detected CFU 75, cefoxitin 1 ug/mL)?
A: Its value is 6741 RLU.

Q: And the “Cefoxitin Concentration 2 ug/mL” value ([18]; detected CFU 75, cefoxitin 2 ug/mL)?
A: The value was 2477 RLU.

Q: What about the “Cefoxitin Concentration 4 ug/mL” value ([18]; detected CFU 75, cefoxitin 4 ug/mL) of the same molecule?
A: Its value is 204 RLU.

Q: What about the “Cefoxitin Concentration 1.8 ug/mL (indicator phage luminescence signal)” value ([19]; detected CFU 14, cefoxitin 1.8 ug/mL) of the same molecule?
A: The value was 2694 RLU.

Q: What about the “Cefoxitin Concentration 1 ug/mL” value ([19]; detected CFU 142, cefoxitin 1 ug/mL) of the same molecule?
A: Its value is 72720 RLU.

Q: What about the “Cefoxitin Concentration 2 ug/mL” value ([19]; detected CFU 142, cefoxitin 2 ug/mL) of the same molecule?
A: Its value is 19210 RLU.

Q: What about the “Cefoxitin Concentration 4 ug/mL” value ([19]; detected CFU 142, cefoxitin 4 ug/mL) of the same molecule?
A: The value was 240 RLU.

Q: What about the “Cefoxitin Concentration 1 ug/mL” value ([20]; detected CFU 220, cefoxitin 1 ug/mL) of the same molecule?
A: Its value is 9217 RLU.

Q: What about the “Cefoxitin Concentration 4 ug/mL” value ([20]; detected CFU 220, cefoxitin 4 ug/mL) of the same molecule?
A: The value was 252 RLU.

Q: And the “Cefoxitin Concentration 1 ug/mL” value ([21]; detected CFU 165, cefoxitin 1 ug/mL)?
A: Its value is 8634 RLU.

Q: What about the “Cefoxitin Concentration 2 ug/mL” value ([21]; detected CFU 165, cefoxitin 2 ug/mL) of the same molecule?
A: Its value is 775 RLU.

Q: What about the “Cefoxitin Concentration 4 ug/mL” value ([21]; detected CFU 165, cefoxitin 4 ug/mL) of the same molecule?
A: The value was 240 RLU.
